Patent US4826838A, “Analgesic carbocyclic and heterocyclic carbonylmethylene-and carbonylmethypipidines and-pyrrolidines” (Sandoz Ltd., priority 1985, dated 1989)

Columns and labels:
behavioral activity = test: Studies A to D taken together (ethological and endocrinological tests); format: in vivo, mouse
Procedure: Male intruder mice show only low levels of social activity and high levels of defensive activity when introduced into the home cage of an individually housed adult male. Benzodiazepines and related drugs increase approaxh activities in this situation (Dixon 1982, Triangle 21: 95-105 (1982) Krsiak. M. Br. J. Pharmacol. 55: 141-150 (1975)). Compounds of formula I, in oral doses of 0.1 to 1 mg/kg increase approach oriented social activity.
Stretched attend postures in mice signify an ambivalent form of conflict which is inhibited by putative anxiolytics (Kaeserman HP Psychopharmacology (1986) 89: 31-37). Compounds of formula I, when given 2 hours before, reduce the duration of stretched attend postures to mice placed on a novel elevated platform.
Compounds of formula I reduce such stress-induced corticosterone at 1 mg/kg p.o. whilst doses from 0.1 to 0.3 increase plasma levels of this hormone.

5-HT3 receptors = conditions: isolated rabbit vagus nerve; cited from earlier work
migraine attack = conditions: slow i.v. injection of 10 mg; cited from earlier work
5-HT3 receptor = conditions: cantharidine blister base; cited from earlier work

In the case of CN1C2CCC1CC(=CC(=O)c1c[nH]c3ccccc13)C2 (single isomer, unassigned; (+)) [compound F, (+)-Indol-3-yl-carbonyl-methylenyl-3-(8-methyl-8-azabicyclo[3.2.1]octane)], the “relative activity among the compounds of formula I” value (behavioral activity) is reported as “most active”.
For CN1C2CCC1CC(=CC(=O)c1c[nH]c3ccccc13)C2 (single isomer, unassigned; (-)) [compound G, (-)-Indol-3-yl-carbonyl-methylenyl-3-(8-methyl-8-azabicyclo[3.2.1]octane)], the “relative activity among the compounds of formula I” value (behavioral activity) was “most active”.
For CCN(CC)C(=O)[C@@H]1C=C2c3cccc4[nH]c(Br)c(c34)C[C@H]2N(C)C1 [BOL -148], the “blockade of the action of serotonin on the C fibre action potential” value (“blockade of the action of serotonin” below) (5-HT3 receptors) is given as “not blocked”.
For CCN(CC)CCNC(=O)c1cc(Cl)c(N)cc1OC [Metoclopramide], the “effect on a migraine attack” value (migraine attack) is given as “immediate beneficial effect”.
With CN1C2CCC1CC(=CC(=O)c1c[nH]c3ccccc13)C2 [compound E, Indol-3-yl-carbonyl-methylenyl-3-(8-methyl-8-azabicyclo[3.2.1]octane)] the “relative activity among the compounds of formula I” value (behavioral activity) was “most active”.
In the case of CCN(CC)C(=O)[C@@H]1C=C2c3cccc4[nH]c(Br)c(c34)C[C@H]2N(C)C1 [its bromo derivative], the “inhibition of the algesic action of serotonin” value (5-HT3 receptor) is listed as “not inhibited”.
For CCN(CC)C(=O)[C@@H]1C=C2c3cccc4[nH]cc(c34)C[C@H]2N(C)C1 [lysergic acid diethylamide], the “inhibition of the algesic action of serotonin” value (5-HT3 receptor) is given as “not inhibited”.
In the case of CC[C@@H](CO)NC(=O)[C@@H]1C=C2c3cccc4c3c(cn4C)C[C@H]2N(C)C1 [methysergide], the “blockade of the action of serotonin” value (5-HT3 receptors) is listed as “not blocked”.
In the case of CSc1ccc2c(c1)C(N1CCN(C)CC1)Cc1ccccc1S2 (stereo not drawn) [metitepine], the “blockade of the action of serotonin” value (5-HT3 receptors) is given as “not blocked”.
